Measured values from PMC11818416, “Discovery of TRPV4-Targeting Small Molecules with Anti-Influenza Effects Through Machine Learning and Experimental Validation” (International Journal of Molecular Sciences, 2025).
Where a name gives a salt, the structure may show the parent alone.

Legend:
H1N1-UI182 = experiment: Mice infected with lethal H1N1-UI182 virus: body weight, survival, lung index, lung viral titer, pathology, viral proteins; type: in vivo, BALB/c mice; conditions: for rate of weight loss in virus-infected mice: 15-drug round, monitored 14 days (Figure 4A,B); for viral titers in the lung: Supplementary Figures S1C and S2C, comparable to the positive drugs; for survival rate of infected mice: 15-drug round (Figure 4C,D); for expression levels of viral proteins (NP, HA, M1) in lungs, WB: 15-drug round (Figure 4K,L); for lung injury (pathology): compared to other treatment groups and virus group, glecaprevir 30 mg/kg, everolimus 5 mg/kg (Figures S1, S2); for protection rate (survival of influenza-infected mice): H1N1-UI182 5 × LD50, BALB/c mice; for rate of weight loss at different concentrations / survival at different concentrations / dose dependence of the inhibitory effect on the virus (lung index, pulmonary viral load, pathological injury): oral
[1] = CCK-8 cytotoxicity test on MDCK cells; conditions: dog
Experimental: (§1) MDCK cells were inoculated in 96-well plates at 37 °C and 5% carbon dioxide for 12 h. The cell supernatant was discarded when the cell density reached 60–70%, and then different concentrations of drugs (0.1, 1, 10, 100 μM) were inoculated in the cell plates, moreover 3 repeat holes were set for each concentration gradient. After 48 h, cell viability was measured using cell counting kit-8 (Beyotime, C0039, CCK-8) depending on factory instructions. The absorbance at 450 nm for each pore was measured using an enzyme-linked immunosorbent plate reader, and half inhibitory concentration (CC50) value of cell viability were calculated by a nonlinear regression curve fitting analysis (Prism 8) of cell viability to the log10 conversion concentration value.

in vitro = conditions: dog
Experimental: as §1

[2] = tested on: NF-κB signaling pathway and inflammatory cytokines; experiment: Inflammatory cytokine expression after H1N1-UI182 infection by WB and RT-qPCR; type: in vivo, mouse; conditions: after H1N1-UI182 infection (Figure 6A-C)
H1N1-UI182 in 293T cells = type: cell-based, human
[3] = glecaprevir 10, 20, 40 mg/kg/day, everolimus 1, 5, 25 mg/kg/day
[4] = glecaprevir 10, 20, 40 mg/kg/day, everolimus 1, 5, 25 mg/kg/day, 5 dpi

## C[C@H]1O[C@H](O[C@H]2[C@H](O)[C@@H](O)[C@@H](O[C@H]3[C@H](O)[C@@H](O)C(O)O[C@@H]3CO)O[C@@H]2CO)[C@H](O)[C@@H](O)[C@@H]1N[C@H]1C=C(CO)[C@@H](O)[C@H](O)[C@H]1O (stereo partly drawn) [Acarbose]
H1N1-UI182
  rate of weight loss in virus-infected mice: significantly slowed the rate of weight loss
[1]; MDCK cells
  CC50 at 48 h: > 100 µM

## CSCCNc1nc(SCCC(F)(F)F)nc2c1ncn2[C@@H]1O[C@H](COP(=O)(O)OP(=O)(O)C(Cl)(Cl)P(=O)(O)O)[C@@H](O)[C@H]1O [Cangrelor]
H1N1-UI182
  rate of weight loss in virus-infected mice: significantly slowed the rate of weight loss
In vitro
  CC50 at 48 h: > 100 µM

## CC(/C=C/C=C(\C)C(=O)O[C@@H]1O[C@H](CO[C@@H]2O[C@H](CO)[C@@H](O)[C@H](O)[C@H]2O)[C@@H](O)[C@H](O)[C@H]1O)=C\C=C\C=C(C)\C=C\C=C(/C)C(=O)O[C@@H]1O[C@H](CO[C@@H]2O[C@H](CO)[C@@H](O)[C@H](O)[C@H]2O)[C@@H](O)[C@H](O)[C@H]1O [Crocin]
[1]; MDCK cells
  CC50 at 48 h: > 100 µM

## CO[C@H]1C[C@@H]2CC[C@@H](C)[C@@](O)(O2)C(=O)C(=O)N2CCCC[C@H]2C(=O)O[C@H]([C@H](C)C[C@@H]2CC[C@@H](OCCO)[C@H](OC)C2)CC(=O)[C@H](C)/C=C(\C)[C@@H](O)[C@@H](OC)C(=O)[C@H](C)C[C@H](C)/C=C/C=C/C=C/1C [Everolimus]
H1N1-UI182; 5 dpi
  viral titers in the lung: significantly reduced viral titers
H1N1-UI182
  survival rate of infected mice: significantly improved the survival rate
  expression levels of viral proteins (NP, HA, M1) in lungs, WB: attenuated obviously
  rate of weight loss in virus-infected mice: significantly slowed the rate of weight loss
  protection rate (survival of influenza-infected mice): 100%
H1N1-UI182; 5 days after infection, compared to the viral group (Figure 4G-J)
  viral load in the lungs: evidently lower
H1N1-UI182; 5 days after infection
  lung injury (pathology): noticeable signs of lung improvement
H1N1-UI182; everolimus 1, 5, 25 mg/kg/day, 5 dpi (Figure 5H)
  pulmonary viral load at different concentrations: decreased notably with the increase of drug concentration
H1N1-UI182; [3]
  rate of weight loss at different concentrations: observably retarded the rate of weight loss
  survival at different concentrations: improved survival in a concentration-dependent manner
H1N1-UI182; [4]
  dose dependence of the inhibitory effect on the virus (lung index, pulmonary viral load, pathological injury): meaningfully dose-dependent
[2]
  expression levels of phosphorylated NF-κB, IL-6, IL-10, IFN-β, TNF-α (WB): decreased
In vitro
  CC50 at 48 h: 78.2 µM
H1N1-UI182 in 293T cells
  expression level of NP protein in normal 293T cells (WB): higher in normal cells
  expression of NP protein in TRPV4−/− 293T cells (WB): significantly decreased

## Cc1cc2nc3c(=O)[nH]c(=O)nc-3n(C[C@H](O)[C@H](O)[C@H](O)COP(=O)(O)OP(=O)(O)OC[C@H]3O[C@@H](n4cnc5c(N)ncnc54)[C@H](O)[C@@H]3O)c2cc1C [FAD]
MDCK cells
  CC50: < 50 µM

## CC(C)(C)[C@@H]1NC(=O)O[C@@H]2CCC[C@H]2OC/C=C/C(F)(F)c2nc3ccccc3nc2O[C@@H]2C[C@@H](C(=O)N[C@]3(C(=O)NS(=O)(=O)C4(C)CC4)C[C@H]3C(F)F)N(C2)C1=O [Glecaprevir]
H1N1-UI182; 5 dpi
  viral titers in the lung: significantly reduced viral titers
H1N1-UI182
  survival rate of infected mice: significantly improved the survival rate
  expression levels of viral proteins (NP, HA, M1) in lungs, WB: attenuated obviously
  rate of weight loss in virus-infected mice: significantly slowed the rate of weight loss
  protection rate (survival of influenza-infected mice): 80%
H1N1-UI182; 5 days after infection
  lung injury (pathology): noticeable signs of lung improvement
H1N1-UI182; glecaprevir 10, 20, 40 mg/kg/day (Figure 5K)
  expression of viral protein in mouse lungs at higher doses, WB: did not effectively inhibit the expression of viral protein at higher doses
H1N1-UI182; glecaprevir 10, 20, 40 mg/kg/day, 5 dpi, H&E (Figure 5I)
  lung lesions at higher concentrations: higher concentrations did not alter the lung lesions
H1N1-UI182; [3]
  rate of weight loss at different concentrations: observably retarded the rate of weight loss
  survival at different concentrations: improved survival in a concentration-dependent manner
H1N1-UI182; [4]
  dose dependence of the inhibitory effect on the virus (lung index, pulmonary viral load, pathological injury): did not display concentration-dependent characteristics
[2]
  expression levels of phosphorylated NF-κB, IL-6, IL-10, IFN-β, TNF-α (WB): decreased
In vitro
  CC50 at 48 h: 77.3 µM

## CNCC(=O)OCc1cccnc1N(C)C(=O)OC(C)[n+]1cnn(C[C@](O)(c2cc(F)ccc2F)[C@@H](C)c2nc(-c3ccc(C#N)cc3)cs2)c1 (stereo partly drawn) [Isavuconazonium]
[1]; MDCK cells
  CC50 at 48 h: > 100 µM

## CN[C@@H]1[C@@H](O)[C@@H](O[C@@H]2[C@@H](O)[C@H](O[C@H]3O[C@H](CN)[C@@H](O)[C@H](O)[C@H]3O)[C@@H](N)C[C@H]2NC(=O)[C@@H](O)CN)OC[C@]1(C)O [Isepamicin]
[1]; MDCK cells
  CC50 at 48 h: > 100 µM

## COC(=O)N[C@H](C(=O)N1CCC[C@H]1C(=O)Nc1ccc([C@@H]2CC[C@@H](c3ccc(NC(=O)[C@@H]4CCCN4C(=O)[C@@H](NC(=O)OC)C(C)C)cc3)N2c2ccc(C(C)(C)C)cc2)cc1)C(C)C [Ombitasvir]
[1]
  CC50 at 48 h: > 100 µM

## NC[C@@H]1O[C@H](O[C@H]2[C@@H](O)[C@H](O[C@@H]3[C@@H](O)[C@H](N)C[C@H](N)[C@H]3O[C@H]3O[C@H](CO)[C@@H](O)[C@H](O)[C@H]3N)O[C@@H]2CO)[C@H](N)[C@@H](O)[C@@H]1O [Paromomycin, Paromomycin sulfate]
[1]; MDCK cells
  CC50 at 48 h: > 100 µM

## CCC[C@H](NC(=O)[C@@H]1[C@H]2CCC[C@H]2CN1C(=O)[C@@H](NC(=O)[C@@H](NC(=O)c1cnccn1)C1CCCCC1)C(C)(C)C)C(=O)C(=O)NC1CC1 [Telaprevir]
In vitro
  CC50 at 48 h: > 100 µM

## NC[C@H]1O[C@H](O[C@H]2[C@H](O)[C@@H](O[C@H]3O[C@H](CO)[C@@H](O)[C@H](N)[C@H]3O)[C@H](N)C[C@@H]2N)[C@H](N)C[C@@H]1O [Tobramycin]
[1]; MDCK cells
  CC50 at 48 h: > 100 µM

## C[C@@H]1O[C@@H](OC[C@H]2O[C@@H](Oc3c(-c4ccc(OCCO)c(OCCO)c4)oc4cc(OCCO)cc(O)c4c3=O)[C@H](O)[C@@H](O)[C@@H]2O)[C@H](O)[C@H](O)[C@H]1O [Troxerutin]
[1]; MDCK cells
  CC50 at 48 h: < 50 µM

## CCCCC(=O)OCC(=O)[C@]1(O)Cc2c(O)c3c(c(O)c2[C@@H](O[C@H]2C[C@H](NC(=O)C(F)(F)F)[C@H](O)[C@H](C)O2)C1)C(=O)c1c(OC)cccc1C3=O [Valrubicin]
[1]; MDCK cells
  CC50 at 48 h: < 50 µM
